{
  "source": "ChEMBL document CHEMBL3639324",
  "about": "“Meta-substituted phenyl sulfonyl amides of secondary amino acid amides, the production thereof, and use thereof as matriptase inhibitors” (2013)",
  "target": "T1, Suppressor of tumorigenicity 14 protein (Homo sapiens, UniProt Q9Y5Y6)",
  "T1 sequence (Q9Y5Y6 whole entry)": "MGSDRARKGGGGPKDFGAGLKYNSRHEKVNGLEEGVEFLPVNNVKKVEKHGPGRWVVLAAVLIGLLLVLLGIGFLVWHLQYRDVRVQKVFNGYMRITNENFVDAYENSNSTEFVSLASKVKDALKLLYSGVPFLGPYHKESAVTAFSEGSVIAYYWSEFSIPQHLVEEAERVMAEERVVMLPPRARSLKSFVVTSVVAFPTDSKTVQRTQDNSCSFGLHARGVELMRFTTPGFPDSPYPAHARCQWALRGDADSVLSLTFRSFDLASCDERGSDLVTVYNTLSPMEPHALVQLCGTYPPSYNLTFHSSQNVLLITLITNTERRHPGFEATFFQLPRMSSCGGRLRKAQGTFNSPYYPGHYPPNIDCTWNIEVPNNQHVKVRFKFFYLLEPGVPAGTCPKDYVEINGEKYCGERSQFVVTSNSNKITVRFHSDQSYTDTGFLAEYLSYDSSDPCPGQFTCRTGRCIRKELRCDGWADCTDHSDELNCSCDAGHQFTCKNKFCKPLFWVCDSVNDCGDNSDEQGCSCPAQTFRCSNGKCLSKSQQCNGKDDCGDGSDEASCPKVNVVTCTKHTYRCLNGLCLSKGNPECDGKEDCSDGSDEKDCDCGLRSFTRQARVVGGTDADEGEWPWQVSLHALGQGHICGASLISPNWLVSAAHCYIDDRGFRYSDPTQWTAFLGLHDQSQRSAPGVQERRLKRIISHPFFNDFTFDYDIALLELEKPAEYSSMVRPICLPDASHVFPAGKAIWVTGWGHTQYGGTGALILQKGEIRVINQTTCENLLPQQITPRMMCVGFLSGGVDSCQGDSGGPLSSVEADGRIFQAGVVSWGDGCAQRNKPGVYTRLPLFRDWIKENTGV",
  "assay": "Inhibition Assay: Inhibition assay using matriptase enzyme",
  "data": [
    {"smiles": "CNC(=O)CCCC1CCN(C(=O)[C@H](Cc2cccc(C(=N)N)c2)NS(=O)(=O)c2cccc(N3CCNCC3=O)c2)CC1", "values": [
      {"measurement": "Ki", "value": 0.024, "unit": "µM"}
    ]}
  ]
}
